#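 Interpolation was linear, between the two tested concentrations surrounding the appropriate level; five concentrations were tested over 48 hours in 96-well plates. At the GI50, growth is halved.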 Active and inactive are the calls of the source. No stated cut-off is given here; in the data, active = GI50 up to about 1.1 µM and inactive = higher.
# How the values were obtained:
# Assay in all cases: inhibition of tumour cell growth, NCI panel, 48 h
# OVCAR-4 = system: OVCAR-4
# CCRF-CEM = system: CCRF-CEM
# SF-268 = system: SF-268
# OVCAR-5 = system: OVCAR-5
# NCI/ADR-RES = system: NCI/ADR-RES
# K562 = system: K562
# SW-620 = system: SW-620
# SK-MEL-5 = system: SK-MEL-5
# MDA-MB-231 = system: MDA-MB-231
# NCI-H522 = system: NCI-H522
# NCI-H226 = system: NCI-H226
# OVCAR-3 = system: OVCAR-3
# UO-31 = system: UO-31
# A549 = system: A549
# ACHN = system: ACHN
# SN12C = system: SN12C
# SK-OV-3 = system: SK-OV-3
# SF-295 = system: SF-295
# TK-10 = system: TK-10
# IGROV-1 = system: IGROV-1
# DU-145 = system: DU-145
# SF-539 = system: SF-539
# 786-0 = system: 786-0
# MDA-N = system: MDA-N
# HL-60 = system: HL-60
# T47D = system: T47D
# EKVX = system: EKVX
# NCI-H23 = system: NCI-H23
# HOP-92 = system: HOP-92
# RXF 393 = system: RXF 393
# Hs-578T = system: Hs-578T
# OVCAR-8 = system: OVCAR-8
# SNB-75 = system: SNB-75
# SNB-19 = system: SNB-19
# MCF7 = system: MCF7
# Malme-3M = system: Malme-3M
# COLO 205 = system: COLO 205
# PC-3 = system: PC-3
# M14 = system: M14
# RPMI-8226 = system: RPMI-8226
# SK-MEL-2 = system: SK-MEL-2
# HCT-116 = system: HCT-116
# HOP-62 = system: HOP-62
# MOLT-4 = system: MOLT-4
# CAKI-1 = system: CAKI-1
# SK-MEL-28 = system: SK-MEL-28
# KM12 = system: KM12
# LOX IMVI = system: LOX IMVI
# U-251 = system: U-251
# HT-29 = system: HT-29
# A498 = system: A498
# HCT-15 = system: HCT-15
# UACC-257 = system: UACC-257
# HCC 2998 = system: HCC 2998
# MDA-MB-435 = system: MDA-MB-435
# UACC-62 = system: UACC-62
# SR = system: SR
# NCI-H460 = system: NCI-H460
smiles,measurement,setting,value
C/C=C/C(=O)N1C(=O)OC[C@@H]1c1ccccc1,GI50,OVCAR-4,23 µM (inactive)
same,GI50,CCRF-CEM,23 µM (inactive)
same,GI50,SF-268,20.5 µM (inactive)
same,GI50,OVCAR-5,17.4 µM (inactive)
same,GI50,NCI/ADR-RES,22.4 µM (inactive)
same,GI50,K562,22.8 µM (inactive)
same,GI50,SW-620,24.6 µM (inactive)
same,GI50,SK-MEL-5,18.7 µM (inactive)
same,GI50,MDA-MB-231,22 µM (inactive)
same,GI50,NCI-H522,20.4 µM (inactive)
same,GI50,NCI-H226,22.2 µM (inactive)
same,GI50,OVCAR-3,18 µM (inactive)
same,GI50,UO-31,19.5 µM (inactive)
same,GI50,A549,19.1 µM (inactive)
same,GI50,ACHN,19.1 µM (inactive)
same,GI50,SN12C,20.5 µM (inactive)
same,GI50,SK-OV-3,18.2 µM (inactive)
same,GI50,SF-295,26.7 µM (inactive)
same,GI50,TK-10,17.5 µM (inactive)
same,GI50,IGROV-1,19.4 µM (inactive)
same,GI50,DU-145,20.5 µM (inactive)
same,GI50,SF-539,21.9 µM (inactive)
same,GI50,786-0,18.2 µM (inactive)
same,GI50,MDA-N,20.7 µM (inactive)
same,GI50,HL-60,21.9 µM (inactive)
same,GI50,T47D,16.3 µM (inactive)
same,GI50,EKVX,17.6 µM (inactive)
same,GI50,NCI-H23,17.2 µM (inactive)
same,GI50,HOP-92,20.6 µM (inactive)
same,GI50,RXF 393,18.5 µM (inactive)
same,GI50,Hs-578T,24.8 µM (inactive)
same,GI50,OVCAR-8,16.7 µM (inactive)
same,GI50,SNB-75,12.8 µM (inactive)
same,GI50,SNB-19,20.4 µM (inactive)
same,GI50,MCF7,14.7 µM (inactive)
same,GI50,Malme-3M,20.4 µM (inactive)
same,GI50,COLO 205,21.8 µM (inactive)
same,GI50,PC-3,18.3 µM (inactive)
same,GI50,M14,19.4 µM (inactive)
same,GI50,RPMI-8226,26.1 µM (inactive)
same,GI50,SK-MEL-2,19.1 µM (inactive)
same,GI50,HCT-116,19.9 µM (inactive)
same,GI50,HOP-62,20.4 µM (inactive)
same,GI50,MOLT-4,25.2 µM (inactive)
same,GI50,CAKI-1,18.3 µM (inactive)
same,GI50,SK-MEL-28,21.5 µM (inactive)
same,GI50,KM12,14.7 µM (inactive)
same,GI50,LOX IMVI,18.2 µM (inactive)
same,GI50,U-251,23.1 µM (inactive)
same,GI50,HT-29,19.2 µM (inactive)
same,GI50,A498,26.1 µM (inactive)
same,GI50,HCT-15,23.3 µM
same,GI50,UACC-257,20.4 µM (inactive)
same,GI50,HCC 2998,23.1 µM (inactive)
same,GI50,MDA-MB-435,27.4 µM (inactive)
COC(=O)C1CCC(=O)N1CN(C(C)=O)c1cc(OC)ccc1OC (stereo unspecified),GI50,OVCAR-4,> 100 µM (inactive)
same,GI50,SF-268,> 100 µM (inactive)
same,GI50,OVCAR-5,> 100 µM (inactive)
same,GI50,NCI/ADR-RES,> 100 µM (inactive)
same,GI50,K562,> 100 µM (inactive)
same,GI50,SW-620,> 100 µM (inactive)
same,GI50,SK-MEL-5,> 100 µM (inactive)
same,GI50,MDA-MB-231,> 100 µM (inactive)
same,GI50,NCI-H522,> 100 µM (inactive)
same,GI50,NCI-H226,> 100 µM (inactive)
same,GI50,OVCAR-3,> 100 µM (inactive)
same,GI50,UO-31,> 100 µM (inactive)
same,GI50,A549,> 100 µM (inactive)
same,GI50,ACHN,> 100 µM (inactive)
same,GI50,SN12C,> 100 µM (inactive)
same,GI50,SK-OV-3,> 100 µM (inactive)
same,GI50,SF-295,> 100 µM (inactive)
same,GI50,TK-10,> 100 µM (inactive)
same,GI50,UACC-62,> 100 µM (inactive)
same,GI50,IGROV-1,> 100 µM (inactive)
same,GI50,DU-145,> 100 µM (inactive)
same,GI50,SF-539,> 100 µM (inactive)
same,GI50,786-0,> 100 µM (inactive)
same,GI50,MDA-N,> 100 µM (inactive)
same,GI50,HL-60,> 100 µM (inactive)
same,GI50,T47D,> 100 µM (inactive)
same,GI50,EKVX,> 100 µM (inactive)
same,GI50,NCI-H23,> 100 µM (inactive)
same,GI50,SR,16.9 µM (inactive)
same,GI50,HOP-92,> 100 µM (inactive)
same,GI50,RXF 393,> 100 µM (inactive)
same,GI50,Hs-578T,> 100 µM (inactive)
same,GI50,OVCAR-8,> 100 µM (inactive)
same,GI50,SNB-75,> 100 µM (inactive)
same,GI50,SNB-19,> 100 µM (inactive)
same,GI50,MCF7,> 100 µM (inactive)
same,GI50,Malme-3M,> 100 µM (inactive)
same,GI50,COLO 205,> 100 µM (inactive)
same,GI50,PC-3,> 100 µM (inactive)
same,GI50,M14,> 100 µM (inactive)
same,GI50,RPMI-8226,> 100 µM (inactive)
same,GI50,SK-MEL-2,> 100 µM (inactive)
same,GI50,HCT-116,> 100 µM (inactive)
same,GI50,HOP-62,> 100 µM (inactive)
same,GI50,MOLT-4,> 100 µM (inactive)
same,GI50,NCI-H460,> 100 µM (inactive)
same,GI50,CAKI-1,> 100 µM (inactive)
same,GI50,SK-MEL-28,> 100 µM (inactive)
same,GI50,KM12,> 100 µM (inactive)
same,GI50,LOX IMVI,> 100 µM (inactive)
same,GI50,U-251,> 100 µM (inactive)
same,GI50,HT-29,> 100 µM (inactive)
same,GI50,A498,> 100 µM (inactive)
same,GI50,HCT-15,> 100 µM
same,GI50,UACC-257,> 100 µM (inactive)
same,GI50,MDA-MB-435,> 100 µM (inactive)

# From ChEMBL document CHEMBL1201862, “PubChem BioAssay data set” (2004)
